Laboratory results: PMC11589570, “Critical assessment of LC3/GABARAP ligands used for degrader development and ligandability of LC3/GABARAP binding pockets” (Nature Communications, 2024)
“And” between values parts separate entries of the source, which are not always exact repeats. Equal entries are not always repeated. “Also recorded” adds a separate entry of the source.

Columns and labels:
[1] = target: LC3A (Homo sapiens, UniProt Q9H492); assay: Isothermal titration calorimetry (ITC); type: binding; conditions: LC3A
[2] = test system: U2OS cells; assay: Cell growth assay (IncuCyte confluence over 72 h); type: cell-based; design: key to U2OS cell growth: % of well area covered by cells (confluence); conditions: for U2OS cell growth: listed as 8F20
Summary of the method: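 U2OS cells were grown in DMEM with 10% FBS for 24 h before treatment. Confluence was then tracked by IncuCyte phase imaging over 72 h and expressed as % of well area covered by cells. Each point is the average of three wells.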

[3] = target: GABARAP (Homo sapiens, UniProt O95166); assay: FP assay with Cy5-labelled p62 LIR tracer (protein titration and tracer displacement); type: binding; conditions: for normalized FP signal, p62 LIR tracer displacement: GABARAP; for compound titration GABARAP (displacement curve, FP signal): two replicate columns per compound
GABARAP, sequence (O95166 1-116): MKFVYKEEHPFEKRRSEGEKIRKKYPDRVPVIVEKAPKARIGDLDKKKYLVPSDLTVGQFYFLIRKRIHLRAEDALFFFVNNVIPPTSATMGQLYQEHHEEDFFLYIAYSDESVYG

## Cc1ccc(C(=O)N(CCCN)[C@@H](c2nc3cc(Cl)ccc3c(=O)n2Cc2ccccc2)C(C)C)cc1 [compound 3, (R)-N-(3-aminopropyl)-N-(1-(3-benzyl-7-chloro-4-oxo-3,4-dihydroquinazolin-2-yl)−2-methylpropyl)−4-methylbenzamide]
[1]
  outcome of ITC titration: did not yield significant binding heats
[2]; 100 nM, time 34 h
  U2OS cell growth: 22.2522 and 20.3197 and 25.5047
[2]; 100 nM, time 36 h
  U2OS cell growth: 25.043 and 22.9919 and 27.5453
[2]; 100 nM, time 38 h
  U2OS cell growth: 34.8117 and 27.203 and 36.419
[2]; 100 nM, time 40 h
  U2OS cell growth: 28.7682 and 25.0593 and 31.2523
[2]; 100 nM, time 42 h
  U2OS cell growth: 28.8457 and 26.5057 and 32.2617
[2]; 100 nM, time 44 h
  U2OS cell growth: 31.3439 and 34.6421 and 31.7152
[2]; 100 nM, time 46 h
  U2OS cell growth: 34.3656 and 30.4353 and 36.3708
[2]; 500 nM, time 34 h
  U2OS cell growth: 26.6194 and 31.3484 and 27.2425
[2]; 500 nM, time 36 h
  U2OS cell growth: 31.7612 and 33.804 and 33.4668
[2]; 500 nM, time 38 h
  U2OS cell growth: 33.118 and 34.4569 and 30.251
[2]; 500 nM, time 40 h
  U2OS cell growth: 39.6842 and 38.1992 and 33.6035
[2]; 500 nM, time 42 h
  U2OS cell growth: 36.1441 and 40.2893 and 34.3307
[2]; 500 nM, time 44 h
  U2OS cell growth: 39.8612 and 39.5559 and 35.4494
[2]; 1 uM, time 34 h
  U2OS cell growth: 32.3197 and 36.2486 and 28.9643
[2]; 1 uM, time 36 h
  U2OS cell growth: 35.3333 and 38.6378 and 32.1258
[2]; 1 uM, time 38 h
  U2OS cell growth: 37.1941 and 39.9036 and 33.4921
[2]; 1 uM, time 40 h
  U2OS cell growth: 42.2479 and 44.6121 and 35.334
[2]; 1 uM, time 42 h
  U2OS cell growth: 42.2672 and 42.3728 and 37.7313
[2]; 1 uM, time 44 h
  U2OS cell growth: 41.5555 and 43.3678 and 38.4367
[2]; 1 uM, time 46 h
  U2OS cell growth: 37.0733
[2]; 3 uM, time 34 h
  U2OS cell growth: 24.9204 and 26.3201 and 25.7719
[2]; 3 uM, time 36 h
  U2OS cell growth: 25.7351 and 27.3161 and 28.6407
[2]; 3 uM, time 38 h
  U2OS cell growth: 25.9027 and 26.3122 and 27.7775
[2]; 3 uM, time 40 h
  U2OS cell growth: 26.2298 and 26.2214 and 29.7472
[2]; 3 uM, time 42 h
  U2OS cell growth: 25.5977 and 26.3382 and 29.6536
[2]; 3 uM, time 44 h
  U2OS cell growth: 26.2297 and 25.3695 and 28.5871
[2]; 3 uM, time 46 h
  U2OS cell growth: 24.6522 and 24.6058 and 27.1829
[2]; 5 uM, time 34 h
  U2OS cell growth: 28.2897 and 22.3175 and 29.2635
[2]; 5 uM, time 36 h
  U2OS cell growth: 23.4225 and 23.0973 and 22.2621
[2]; 5 uM, time 38 h
  U2OS cell growth: 33.3374 and 20.2415 and 36.6497
[2]; 5 uM, time 40 h
  U2OS cell growth: 36.8034 and 23.7173 and 40.6411
[2]; 5 uM, time 42 h
  U2OS cell growth: 29.192 and 24.8481 and 31.1144
[2]; 5 uM, time 44 h
  U2OS cell growth: 25.7303 and 24.4958 and 26.8332
[2]; 5 uM, time 46 h
  U2OS cell growth: 31.8475 and 23.3649 and 37.1335
[2]; U2OS, 72 h
  effect on cell growth (confluence): significant growth inhibition in all tested concentrations; also recorded: strongly suppressed cellular growth
[3]; log10 concentration [M] -3.82391, listed as 8F20
  normalized FP signal, p62 LIR tracer displacement: 89.6552 and 90.5172
[3]; log10 concentration [M] -4.1549, listed as 8F20
  normalized FP signal, p62 LIR tracer displacement: 93.7931 and 93.9655
[3]; log10 concentration [M] -4.60206, listed as 8F20
  normalized FP signal, p62 LIR tracer displacement: 101.379 and 97.931
[3]; log10 concentration [M] -5, listed as 8F20
  normalized FP signal, p62 LIR tracer displacement: 97.4138 and 100.172
[3]; log10 concentration [M] -5.30103, listed as 8F20
  normalized FP signal, p62 LIR tracer displacement: 96.2069 and 97.931
[3]; log10 concentration [M] -5.69897, listed as 8F20
  normalized FP signal, p62 LIR tracer displacement: 90 and 89.6552
[3]; log10 concentration [M] -6.22185, listed as 8F20
  normalized FP signal, p62 LIR tracer displacement: 96.2069 and 96.5517
[3]; log10 concentration [M] -6.69897, listed as 8F20
  normalized FP signal, p62 LIR tracer displacement: 96.5517 and 96.3793
[3]; log10 concentration [M] -7.30103, listed as 8F20
  normalized FP signal, p62 LIR tracer displacement: 100 and 98.2759
[3]; log10 concentration [M] -7.79588
  normalized FP signal, p62 LIR tracer displacement: 95.5172
[3]; log10 concentration [M] -8.08092, listed as 8F20
  normalized FP signal, p62 LIR tracer displacement: 97.069 and 98.1034
[3]; log10 concentration [M] -3.82391
  compound titration GABARAP (displacement curve, FP signal): 89.6552 and 90.5172
[3]; log10 concentration [M] -4.1549
  compound titration GABARAP (displacement curve, FP signal): 93.7931 and 93.9655
[3]; log10 concentration [M] -4.60206
  compound titration GABARAP (displacement curve, FP signal): 101.379 and 97.931
[3]; log10 concentration [M] -5
  compound titration GABARAP (displacement curve, FP signal): 97.4138 and 100.172
[3]; log10 concentration [M] -5.30103
  compound titration GABARAP (displacement curve, FP signal): 96.2069 and 97.931
[3]; log10 concentration [M] -5.69897
  compound titration GABARAP (displacement curve, FP signal): 90 and 89.6552
[3]; log10 concentration [M] -6.22185
  compound titration GABARAP (displacement curve, FP signal): 96.2069 and 96.5517
[3]; log10 concentration [M] -6.69897
  compound titration GABARAP (displacement curve, FP signal): 96.5517 and 96.3793
[3]; log10 concentration [M] -7.30103
  compound titration GABARAP (displacement curve, FP signal): 100 and 98.2759
